Patent US10294202B2, “Pyrrolidinones as herbicides” (FMC Corporation, priority 2013, dated 2019)

Assays:
wheat = test: Test A pre-/postemergence herbicide test; type: in vivo, Triticum aestivum; conditions: Postemergence
In short: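 Both application timings used compounds in a non-phytotoxic solvent plus surfactant. Pre-emergence: soil sprayed directly after seeding into loam/sand. Post-emergence: foliage of 2–10 cm seedlings (1–2 leaves) sprayed. Injury rated ~10 days later, 0–100.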

sedge, umbrella = test: Test B flooded paddy test; type: in vivo, Cyperus difformis; conditions: 500 g ai/ha, Flood; scale of 0 to 100 where 0 is no effect and 100 is complete control
In short: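 First, plants reach the 2-leaf stage; next, pots are flooded to 3 cm and compound is delivered into the water; finally, after 13 to 15 greenhouse days at constant depth, injury is graded visually from 0 to 100 against controls.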

blackgrass = test: Test C pre-/postemergence herbicide test; type: in vivo, Alopecurus myosuroides
In short: (§1)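 Herbicidal effect was judged by eye 13 to 15 days after treatment in the greenhouse, using a 0–100 scale against controls. Chemicals in a non-phytotoxic solvent with surfactant were sprayed onto planted loam/sand soil or onto plants 2 to 18 cm tall in a peat-based growing medium.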

wheat (winter wheat) = test: Test C pre-/postemergence herbicide test; type: in vivo, Triticum aestivum
In short: as §1

galium = test: Test C pre-/postemergence herbicide test; type: in vivo, Galium aparine
In short: as §1

crabgrass, large = test: Test C pre-/postemergence herbicide test; type: in vivo, Digitaria sanguinalis
In short: as §1

johnsongrass = test: Test C pre-/postemergence herbicide test; type: in vivo, Sorghum halepense
In short: as §1

lambsquarters = test: Test C pre-/postemergence herbicide test; type: in vivo, Chenopodium album
In short: as §1

morningglory = test: Test C pre-/postemergence herbicide test; type: in vivo, Ipomoea coccinea
In short: as §1

pigweed = test: Test C pre-/postemergence herbicide test; type: in vivo, Amaranthus retroflexus
In short: as §1

waterhemp = test: Test C pre-/postemergence herbicide test; type: in vivo, Amaranthus rudis
In short: as §1

[1] = Postemergence, 31 g ai/ha, scale 0 to 100 (0 no effect, 100 complete control)
[2] = Postemergence, 62 g ai/ha, scale 0 (no effect) to 100 (complete control)
[3] = Postemergence, 125 g ai/ha, scale 0 to 100 (0 no effect, 100 complete control)
[4] = Postemergence, 250 g ai/ha, scale 0 to 100 (0 no effect, 100 complete control)
[5] = Preemergence, 31 g ai/ha, scale 0 to 100, 0 is no effect and 100 is complete control
[6] = Preemergence, 62 g ai/ha, scale 0 to 100 (0 no effect, 100 complete control)
[7] = Preemergence, 125 g ai/ha, scale 0 to 100 (0 no effect, 100 complete control)

For `O=C1NCC(c2cc(F)cc(F)c2)C1C(=O)Nc1cccc(F)c1F` (racemic) [Compound 279], the “Plant response rating, Wheat” value (wheat; 125 g ai/ha, visual rating on 0 to 100 scale (0 no effect, 100 complete control), approx. 10 days) was 40, the “Plant response rating, Wheat” value (wheat; 500 g ai/ha, 0 to 100 scale (0 no effect, 100 complete control)) was 60 and the “Plant response rating, Sedge, Umbrella” value (sedge, umbrella) was 0. The “Plant response rating, Blackgrass” value (blackgrass; [1]) was 0, the “Plant response rating, Blackgrass” value (blackgrass; [2]) was 0 and the “Plant response rating, Blackgrass” value (blackgrass; [3]) was 0. The “Plant response rating, Blackgrass” value (blackgrass; [4]) was 0, the “Blackgrass plant response rating” value (blackgrass; [5]) was 0 and the “Blackgrass plant response rating” value (blackgrass; [6]) was 0. The “Plant response rating, Blackgrass” value (blackgrass; [7]) was 30, the “Plant response rating (scale of 0 to 100), Blackgrass” value (blackgrass; Preemergence, 250 g ai/ha) was 85 and the “Plant response rating, Wheat” value (wheat (winter wheat); [1]) was 0. The “Plant response rating, Wheat” value (wheat (winter wheat); [2]) was 0, the “Plant response rating, Wheat” value (wheat (winter wheat); [3]) was 0 and the “Plant response rating, Wheat” value (wheat (winter wheat); [4]) was 0. For the same molecule, the “Wheat plant response rating” value (wheat (winter wheat); [5]) was 0, the “Wheat plant response rating” value (wheat (winter wheat); [6]) was 15 and the “Plant response rating (scale of 0 to 100), Wheat” value (wheat (winter wheat); Preemergence, 250 g ai/ha) was 30. The “Plant response rating, Galium” value (galium; [1]) was 0, the “Plant response rating, Galium” value (galium; [2]) was 15 and the “Plant response rating, Galium” value (galium; [3]) was 30. For the same molecule, the “Plant response rating, Galium” value (galium; [4]) was 30, the “Galium plant response rating” value (galium; [5]) was 0 and the “Galium plant response rating” value (galium; [6]) was 0. For the same molecule, the “Plant response rating, Galium” value (galium; [7]) was 85, the “Plant response rating (scale of 0 to 100), Galium” value (galium; Preemergence, 250 g ai/ha) was 85 and the “Plant response rating, Crabgrass, Large” value (crabgrass, large; [1]) was 25. The “Plant response rating, Crabgrass, Large” value (crabgrass, large; [2]) was 65, the “Plant response rating, Crabgrass, Large” value (crabgrass, large; [3]) was 70 and the “Plant response rating, Crabgrass, Large” value (crabgrass, large; [4]) was 80. The “Crabgrass, Large plant response rating” value (crabgrass, large; [5]) was 95, the “Crabgrass, Large plant response rating” value (crabgrass, large; [6]) was 95 and the “Plant response rating, Crabgrass, Large” value (crabgrass, large; [7]) was 98. For the same molecule, the “Plant response rating (scale of 0 to 100), Crabgrass, Large” value (crabgrass, large; Preemergence, 250 g ai/ha) was 100, the “Plant response rating, Johnsongrass” value (johnsongrass; [1]) was 0 and the “Plant response rating, Johnsongrass” value (johnsongrass; [2]) was 0. For the same molecule, the “Plant response rating, Johnsongrass” value (johnsongrass; [3]) was 0, the “Plant response rating, Johnsongrass” value (johnsongrass; [4]) was 0 and the “Johnsongrass plant response rating” value (johnsongrass; [5]) was 0. The “Johnsongrass plant response rating” value (johnsongrass; [6]) was 25, the “Plant response rating, Johnsongrass” value (johnsongrass; [7]) was 70 and the “Plant response rating (scale of 0 to 100), Johnsongrass” value (johnsongrass; Preemergence, 250 g ai/ha) was 80. The “Plant response rating, Lambsquarters” value (lambsquarters; [1]) was 0, the “Plant response rating, Lambsquarters” value (lambsquarters; [2]) was 0 and the “Plant response rating, Lambsquarters” value (lambsquarters; [3]) was 45. The “Plant response rating, Lambsquarters” value (lambsquarters; [4]) was 45, the “Lambsquarters plant response rating” value (lambsquarters; [5]) was 0 and the “Lambsquarters plant response rating” value (lambsquarters; [6]) was 0. For the same molecule, the “Plant response rating, Lambsquarters” value (lambsquarters; [7]) was 65, the “Plant response rating (scale of 0 to 100), Lambsquarters” value (lambsquarters; Preemergence, 250 g ai/ha) was 90 and the “Plant response rating, Morningglory” value (morningglory; [1]) was 5. The “Plant response rating, Morningglory” value (morningglory; [2]) was 60, the “Plant response rating, Morningglory” value (morningglory; [3]) was 30 and the “Plant response rating, Morningglory” value (morningglory; [4]) was 25. For the same molecule, the “Morningglory plant response rating” value (morningglory; [5]) was 0, the “Morningglory plant response rating” value (morningglory; [6]) was 0 and the “Plant response rating, Morningglory” value (morningglory; [7]) was 10. The “Plant response rating (scale of 0 to 100), Morningglory” value (morningglory; Preemergence, 250 g ai/ha) was 10, the “Plant response rating, Pigweed” value (pigweed; [1]) was 30 and the “Plant response rating, Pigweed” value (pigweed; [2]) was 10. The “Plant response rating, Pigweed” value (pigweed; [3]) was 30, the “Plant response rating, Pigweed” value (pigweed; [4]) was 20 and the “Pigweed plant response rating” value (pigweed; [5]) was 0. The “Pigweed plant response rating” value (pigweed; [6]) was 5, the “Plant response rating, Pigweed” value (pigweed; [7]) was 0 and the “Plant response rating (scale of 0 to 100), Pigweed” value (pigweed; Preemergence, 250 g ai/ha) was 75. The “Plant response rating, Waterhemp” value (waterhemp; [1]) was 5, the “Plant response rating, Waterhemp” value (waterhemp; [2]) was 20 and the “Plant response rating, Waterhemp” value (waterhemp; [3]) was 15. For the same molecule, the “Plant response rating, Waterhemp” value (waterhemp; [4]) was 15, the “Waterhemp plant response rating” value (waterhemp; [5]) was 0 and the “Waterhemp plant response rating” value (waterhemp; [6]) was 15. For the same molecule, the “Plant response rating, Waterhemp” value (waterhemp; [7]) was 55 and the “Plant response rating (scale of 0 to 100), Waterhemp” value (waterhemp; Preemergence, 250 g ai/ha) was 80.
With `O=C1NCC(c2cccc(OC(F)F)c2)C1C(=O)Nc1ccccc1F` (centres unmarked) [Compound 223] the “Plant response rating, Wheat” value (wheat; 125 g ai/ha, 0 to 100 scale, 0 is no effect, 100 is complete control) was 40, the “Wheat plant response rating (0 to 100 scale, 0 is no effect, 100 is complete control)” value (wheat; 500 g ai/ha) was 50 and the “Plant response rating, Sedge, Umbrella” value (sedge, umbrella) was 0. The “Plant response rating, Blackgrass” value (blackgrass; [1]) was 0, the “Plant response rating, Blackgrass” value (blackgrass; [2]) was 0 and the “Plant response rating, Blackgrass” value (blackgrass; [3]) was 0. For the same molecule, the “Plant response rating, Blackgrass” value (blackgrass; [4]) was 0, the “Blackgrass plant response rating” value (blackgrass; [5]) was 35 and the “Plant response rating, Blackgrass” value (blackgrass; Preemergence, 62 g ai/ha, scale 0 to 100) was 35. The “Plant response rating, Blackgrass” value (blackgrass; [7]) was 85, the “Plant response rating (scale of 0 to 100), Blackgrass” value (blackgrass; Preemergence, 250 g ai/ha) was 85 and the “Plant response rating, Wheat” value (wheat (winter wheat); [1]) was 0. The “Plant response rating, Wheat” value (wheat (winter wheat); [2]) was 0, the “Plant response rating, Wheat” value (wheat (winter wheat); [3]) was 0 and the “Plant response rating, Wheat” value (wheat (winter wheat); [4]) was 0. The “Wheat plant response rating” value (wheat (winter wheat); [5]) was 0, the “Wheat plant response rating” value (wheat (winter wheat); [6]) was 5 and the “Plant response rating, Wheat” value (wheat (winter wheat); [7]) was 10. For the same molecule, the “Plant response rating (scale of 0 to 100), Wheat” value (wheat (winter wheat); Preemergence, 250 g ai/ha) was 35, the “Plant response rating, Galium” value (galium; [1]) was 5 and the “Plant response rating, Galium” value (galium; [2]) was 5. The “Plant response rating, Galium” value (galium; [3]) was 45, the “Plant response rating, Galium” value (galium; [4]) was 70 and the “Galium plant response rating” value (galium; [5]) was 0. The “Galium plant response rating” value (galium; [6]) was 0, the “Plant response rating, Galium” value (galium; [7]) was 90 and the “Plant response rating (scale of 0 to 100), Galium” value (galium; Preemergence, 250 g ai/ha) was 90. For the same molecule, the “Plant response rating, Crabgrass, Large” value (crabgrass, large; [1]) was 0, the “Plant response rating, Crabgrass, Large” value (crabgrass, large; [2]) was 10 and the “Plant response rating, Crabgrass, Large” value (crabgrass, large; [3]) was 55. For the same molecule, the “Plant response rating, Crabgrass, Large” value (crabgrass, large; [4]) was 80, the “Crabgrass, Large plant response rating” value (crabgrass, large; [5]) was 85 and the “Crabgrass, Large plant response rating” value (crabgrass, large; [6]) was 90. The “Plant response rating, Crabgrass, Large” value (crabgrass, large; [7]) was 95, the “Plant response rating (scale of 0 to 100), Crabgrass, Large” value (crabgrass, large; Preemergence, 250 g ai/ha) was 100 and the “Plant response rating, Johnsongrass” value (johnsongrass; [1]) was 0. The “Plant response rating, Johnsongrass” value (johnsongrass; [2]) was 0, the “Plant response rating, Johnsongrass” value (johnsongrass; [3]) was 0 and the “Plant response rating, Johnsongrass” value (johnsongrass; [4]) was 0. The “Johnsongrass plant response rating” value (johnsongrass; [5]) was 0, the “Johnsongrass plant response rating” value (johnsongrass; [6]) was 0 and the “Plant response rating, Johnsongrass” value (johnsongrass; [7]) was 35. For the same molecule, the “Plant response rating (scale of 0 to 100), Johnsongrass” value (johnsongrass; Preemergence, 250 g ai/ha) was 55, the “Plant response rating, Lambsquarters” value (lambsquarters; [1]) was 0 and the “Plant response rating, Lambsquarters” value (lambsquarters; [2]) was 5. For the same molecule, the “Plant response rating, Lambsquarters” value (lambsquarters; [3]) was 35, the “Plant response rating, Lambsquarters” value (lambsquarters; [4]) was 60 and the “Lambsquarters plant response rating” value (lambsquarters; [5]) was 70. For the same molecule, the “Lambsquarters plant response rating” value (lambsquarters; [6]) was 70, the “Plant response rating, Lambsquarters” value (lambsquarters; [7]) was 85 and the “Plant response rating (scale of 0 to 100), Lambsquarters” value (lambsquarters; Preemergence, 250 g ai/ha) was 90. For the same molecule, the “Plant response rating, Morningglory” value (morningglory; [1]) was 0, the “Plant response rating, Morningglory” value (morningglory; [2]) was 0 and the “Plant response rating, Morningglory” value (morningglory; [3]) was 0. The “Plant response rating, Morningglory” value (morningglory; [4]) was 35, the “Morningglory plant response rating” value (morningglory; [5]) was 0 and the “Morningglory plant response rating” value (morningglory; [6]) was 0. The “Plant response rating, Morningglory” value (morningglory; [7]) was 10, the “Plant response rating (scale of 0 to 100), Morningglory” value (morningglory; Preemergence, 250 g ai/ha) was 20 and the “Plant response rating, Pigweed” value (pigweed; [1]) was 5. The “Plant response rating, Pigweed” value (pigweed; [2]) was 10, the “Plant response rating, Pigweed” value (pigweed; [3]) was 10 and the “Plant response rating, Pigweed” value (pigweed; [4]) was 60. For the same molecule, the “Pigweed plant response rating” value (pigweed; [5]) was 20, the “Pigweed plant response rating” value (pigweed; [6]) was 5 and the “Plant response rating, Pigweed” value (pigweed; [7]) was 20. The “Plant response rating (scale of 0 to 100), Pigweed” value (pigweed; Preemergence, 250 g ai/ha) was 30, the “Plant response rating, Waterhemp” value (waterhemp; [1]) was 0 and the “Plant response rating, Waterhemp” value (waterhemp; [2]) was 0. The “Plant response rating, Waterhemp” value (waterhemp; [3]) was 10, the “Plant response rating, Waterhemp” value (waterhemp; [4]) was 10 and the “Waterhemp plant response rating” value (waterhemp; [5]) was 90. For the same molecule, the “Waterhemp plant response rating” value (waterhemp; [6]) was 0, the “Plant response rating, Waterhemp” value (waterhemp; [7]) was 0 and the “Plant response rating (scale of 0 to 100), Waterhemp” value (waterhemp; Preemergence, 250 g ai/ha) was 25.
